Laboratory results: US6689397B2, “Identification of snake repellents” (priority 1999, dated 2004)

Columns and labels:
[1] = test system: Brown tree snakes (Boiga irregularis); experiment: Aerosol tests: 2 s aerosol spray onto snake's head, behavior observed for 5 min; type: in vivo; conditions: single reagents; for activity category from cluster analysis of behaviors (clusters I-V): Ward's method on VM, SM, LAT, TOT, % VM, % SM; for latency to response (movement latency) / movement when sprayed: 2 s aerosol; for latency to response (movement latency): post-hoc comparison with amyl acetate; for movement when sprayed: 5 min observation
Protocol: Brown tree snakes (Boiga irregularis), N=400, were captured on the island of Guam along forest-jungle edge using modified minnow traps with live mice lures or by hand after being spot-lighted on fences. Snakes were individually housed in plastic containers until tested. The holding containers were housed in a military warehouse on Andersen Air Force Base, Guam under a 12:12 light:dark cycle. In general snakes were tested only once. […] Capture of snakes occurred during three separate visits to the island: 1997, 1998, 1999.
Essential oils and individual chemicals were diluted into an inert carrier liquid (water) for the purpose of testing. An emulsifying agent (3× yucca extract) was added to the composition to stabilize the water insoluble essential oils and individual chemicals in aqueous solution. The test formulations consisted of 1% test agent (i.e., a specific essential oil or chemical), 1% 3× yucca extract and 98% water. The formulated contents were held in a reservoir in which a siphon was suspended. Pressurized air, contained in an aerosol can was passed over the orifice of the siphon to create a negative pressure which would drawn the test formulation up through the siphon and eject the formulated contents and pressurized air through a small bore nozzle to create an atomized liquid, i.e. aerosol spray.
For testing, the holding tub was moved to the observation room and the solid lid was replaced with a lid with a screen insert. […] Snakes that became active as a result of the handling were not used in the assay. After a 15 min interval where the snake remained in a coiled position, aerosol was sprayed directly onto the snake's head for 2 s at a distance of 30 mm. Immediately after aerosol application, the observer moved to an observation distance of 3 m. We limited observations to the 5 min following aerosol applications. […] Also, in pilot tests, and with only few exceptions, the escape activity of the snake given an acute (2 s) exposure to the chemical subsided after 5 min.
Behaviors were categorized by a trained observer as follows: VM was a violent, vigorous movement by snakes exposed to the aerosol. This movement was characterized by undirected flailing and vigorous probing of the creases of the test chamber. SM, was characterized as a directed, slow search behavior, often accompanied by tongue flicks. This behavior could also be classified as investigatory behavior. In both cases the duration (s) of these behaviors was noted. The time from the application of the stimulus to the onset of either VM or SM was defined as the latency, LAT-VM and LAT-SM, respectively. For the purposes of analysis we used the latency to the first locomotory behavior, LAT, as the quantifiable metric. TOT was defined as the total amount of time (s) that a snake was engaged in locomatory behavior. The time spent in each locomatory behavior relative to the total active time was defined as % VM and % SM, respectively.
We used a fixed effects analysis of variance for the a priori comparison across chemicals. In the first set of analyses, essential oil was the between measures effects while behavior was the dependent variable. We used a post hoc Tukey's Honest Significance Difference test to isolate differences among test stimuli for each of the behavioral measures. Similar analyses were performed for the single reagents. We also categorized reagents into groups that yielded similar combinations of behaviors using cluster analysis (STATISTICA 1999). Amalgamation of clusters was achieved using Ward's method. This approach is distinct from most clustering algorithms in that it uses an analysis of variance approach to evaluate the distances between clusters. The distance measure used was a Chebychev distance. This approach tends to maximize the number of clusters because it is sensitive to differences among objects along single dimensions. The behavioral dimensions considered were: VM, SM, LAT, TOT, % VM, and % SM.

brown treesnakes = conditions: in vivo; cited from earlier work

Structure (SMILES) | activity category from cluster analysis of behaviors (clusters I-V) [1] | irritant to brown treesnakes (brown treesnakes) | latency to response (movement latency) [1] | movement when sprayed [1]
CC(C)C12CCC(C)(CC1)O2 [1,4-cineole] | most active |  |  | 
c1ccc2ccccc2c1 [Naphthalene] |  | not an irritant |  | 
CC1=CCC2CC1C2(C)C (stereo not shown) [a-pinene] | moderately active |  |  | 
CC1=CC=C(C(C)C)CC1 [a-terpinene] | only weakly active |  | longer than amyl acetate | 
CCCCCOC(C)=O [amyl acetate] | highly irritating, but poor at promoting long-term locomatory behavior |  | shortest | 
CC12CCC(CC1=O)C2(C)C (stereo not shown) [camphor] | did not react |  | longer than amyl acetate | did not move at all
O=CC=Cc1ccccc1 [cinnamaldehyde] | most active |  |  | 
O=C(O)C=Cc1ccccc1 [cinnamic acid] | did not react |  | longer than amyl acetate | did not move at all
CC(C)=CCCC(C)=CC=O [citral] | most active |  |  | 
CCCC(=O)OCC [ethyl butyrate] | only weakly active |  | longer than amyl acetate | 
CCOC(=O)Cc1ccccc1 [ethyl phenyl acetate] | moderately active |  |  | 
C=CCc1ccc(O)c(OC)c1 [eugenol] | moderately active |  |  | 
CC(C)=CCC/C(C)=C/CO [geraniol] | did not react |  | longer than amyl acetate | did not move at all
CC(=O)OC/C=C(\C)CCC=C(C)C [geranyal acetate] | most active |  |  | 
C=C(C)[C@H]1CC=C(C)CC1 [limonene] | only weakly active |  | longer than amyl acetate | 
C=CC(C)(O)CCC=C(C)C (stereo not shown) [linalool] | only weakly active |  | longer than amyl acetate | 
COc1cccc(C=O)c1 [m-anisaldehyde] | most active |  |  | 
CC(C)[C@@H]1CC[C@@H](C)CC1=O [menthone] | highly irritating, but poor at promoting long-term locomatory behavior |  |  | 
COC(=O)c1ccccc1N [methyl anthranilate] | highly irritating, but poor at promoting long-term locomatory behavior |  |  | 
COC(=O)c1ccccc1O [methyl salicylate] | most active |  |  | 
CC(C)=CCC/C(C)=C\CO [nerol] | moderately active |  | longer than amyl acetate | 
C/C=C/c1ccc(OC)cc1 [trans-anethole] | most active |  |  | 
